Assay results reported in patent US20240391862A1, “(1,4,5-TRISUBSTITUTED-1H-PYRAZOL-3-YL)OXY-2-ALKOXY ALKYL ACIDS AND THEIR DERIVATIVES, THEIR SALTS AND THEIR USE AS HERBICIDAL AGENTS” (Bayer AKtiengesellschaft, priority 2021, published 2024).

Key:
ABUTH = test: Post-emergence herbicidal effect, greenhouse pot test; assay type: in vivo, Abutilon theophrasti; details: visual rating about 3 weeks after treatment; for pest or weed control at 320 g/ha: Abutilon theophrasti, 504 h, read-out: Post-emergence effect against ABUTH
Summary of the method: (§1)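 Greenhouse pot test: weeds and crops sown in sandy loam, sprayed post-emergence at one-leaf stage (2–3 weeks after sowing) with WP or EC formulations plus 0.5% additive at 600 l/ha water, rates 20–320 g/ha. Visual rating about 3 weeks later versus untreated controls (100% = dead, 0% = as control).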

VIOTR = test: as above; assay type: in vivo, Viola tricolor
Summary of the method: as §1

AMARE = test: as above; assay type: in vivo, Amaranthus retroflexus; details: visual rating about 3 weeks after treatment
Summary of the method: as §1

AVEFA = test: as above; assay type: in vivo, Avena fatua; details: visual rating about 3 weeks after treatment
Summary of the method: as §1

ALOMY = test: as above; assay type: in vivo, Alopecurus myosuroides; details: 320 g/ha, visual rating about 3 weeks after treatment; for pest or weed control at 320 g/ha: Alopecurus myosuroides, 504 h, read-out: Post-emergence effect against ALOMY
Summary of the method: as §1

LOLRI = test: as above; assay type: in vivo, Lolium rigidum; details: for pest or weed control at 320 g/ha: Lolium rigidum, 504 h, read-out: Post-emergence effect against LOLRI in %
Summary of the method: as §1

ECHCG = test: as above; assay type: in vivo, Echinochloa crus-galli; details: for pest or weed control at 320 g/ha: Echinochloa crus-galli, 504 h, read-out: Post-emergence effect against ECHCG in %
Summary of the method: as §1

SETVI = test: as above; assay type: in vivo, Setaria viridis; details: for pest or weed control at 320 g/ha: Setaria viridis, 504 h, read-out: Post-emergence effect against SETVI in %
Summary of the method: as §1

MATIN = test: as above; assay type: in vivo, Tripleurospermum inodorum
Summary of the method: as §1

DIGSA = test: as above; assay type: in vivo, Digitaria sanguinalis; details: 320 g/ha, visual rating about 3 weeks after treatment; for pest or weed control at 320 g/ha: Digitaria sanguinalis, 504 h, read-out: Post-emergence effect against DIGSA
Summary of the method: as §1

PHBPU = test: as above; assay type: in vivo, Ipomoea purpurea
Summary of the method: as §1

VERPE = test: as above; assay type: in vivo, Veronica persica
Summary of the method: as §1

POLCO = test: as above; assay type: in vivo, Fallopia convolvulus
Summary of the method: as §1

TRZAS = test: Post-emergence herbicidal effect and crop plant compatibility, greenhouse pot test; assay type: in vivo, Triticum aestivum; details: 20 g/ha, one-leaf stage, rated visually after about 3 weeks vs untreated controls; for percent crop injury (phytotoxicity) to wheat, post-emergence at 20 g/ha: Triticum aestivum, 504 h, read-out: Post-emergence effect at 20 g/ha against TRZAS in %
Summary of the method: (§2)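 Visual % activity scored roughly 3 weeks post-spray against untreated plants, where 100% means death and 0% equals control. Plants were treated at the one-leaf stage, 2 to 3 weeks after sowing in sandy loam, at 20 to 320 g/ha.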

ZEAMX = test: as above; assay type: in vivo, Zea mays; details: Zea mays, 504 h, one-leaf stage, rated visually after about 3 weeks vs untreated controls; for plant injury at 20 g/ha: read-out: Post-emergence effect at 20 g/ha against ZEAMX in %
Summary of the method: as §2

KCHSC = test: Post-emergence herbicidal effect, greenhouse pot test; assay type: in vivo; details: 504 h, 320 g/ha, read-out: Post-emergence effect against KCHSC in %
Summary of the method: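 Visual rating of activity against untreated plants (100% = plants died, 0% = no effect), done about 3 weeks after treatment. Compounds applied at 20–320 g/ha as aqueous spray (600 l/ha, 0.5% additive) from WP or EC formulations onto one-leaf-stage plants grown in sandy loam under greenhouse conditions.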

[1] = Viola tricolor, 504 h, 320 g/ha, read-out: Post-emergence effect against VIOTR in %
[2] = Amaranthus retroflexus, 504 h, 320 g/ha, read-out: Post-emergence effect against AMARE
[3] = Ipomoea purpurea, 504 h, 320 g/ha, read-out: Post-emergence effect against PHBPU in %
[4] = Veronica persica, 504 h, 320 g/ha, read-out: Post-emergence effect against VERPE in %
[5] = Fallopia convolvulus, 504 h, 320 g/ha, read-out: Post-emergence effect against POLCO in %

COC(=O)CCOC(=O)C(OC)Oc1nn(-c2cc(F)ccc2F)c(-c2cncc(F)c2)c1C1CC1 (single isomer, unassigned) [Example I-78]
Post-emergence effect against ABUTH (ABUTH; 20 g/ha): 80% | Post-emergence effect against ABUTH (ABUTH; 80 g/ha): 80% | Post-emergence effect against ABUTH (ABUTH; 320 g/ha): 80% | Post-emergence effect against VIOTR in % (VIOTR; 20 g/ha): 80% | Post-emergence effect against VIOTR in % (VIOTR; 80 g/ha): 90% | Post-emergence effect against VIOTR in % (VIOTR; 320 g/ha): 90% | Post-emergence effect against AMARE (AMARE; 80 g/ha): 90% | Post-emergence effect against AMARE (AMARE; 320 g/ha): 90% | Post-emergence effect against AVEFA (AVEFA; 80 g/ha): 90% | Post-emergence effect against AVEFA (AVEFA; 320 g/ha): 90% | Post-emergence effect against ALOMY (ALOMY): 90% | Post-emergence effect against LOLRI in % (LOLRI; 80 g/ha): 90% | Post-emergence effect against LOLRI in % (LOLRI; 320 g/ha): 90% | Post-emergence effect against ECHCG (ECHCG; 20 g/ha, visual rating about 3 weeks after treatment): 90% | Post-emergence effect against ECHCG in % (ECHCG; 80 g/ha): 90% | Post-emergence effect against ECHCG in % (ECHCG; 320 g/ha): 90% | Post-emergence effect against SETVI in % (SETVI; 80 g/ha): 90% | Post-emergence effect against SETVI in % (SETVI; 320 g/ha): 90% | Post-emergence effect against MATIN in % (MATIN; 20 g/ha): 80% | Post-emergence effect against MATIN in % (MATIN; 80 g/ha): 90% | Post-emergence effect against MATIN in % (MATIN; 320 g/ha): 90% | Post-emergence effect against DIGSA (DIGSA): 80% | Post-emergence effect against PHBPU in % (PHBPU; 20 g/ha): 80% | Post-emergence effect against PHBPU in % (PHBPU; 80 g/ha): 90% | Post-emergence effect against PHBPU in % (PHBPU; 320 g/ha): 90% | Post-emergence effect against VERPE in % (VERPE; 20 g/ha): 80% | Post-emergence effect against VERPE in % (VERPE; 80 g/ha): 90% | Post-emergence effect against VERPE in % (VERPE; 320 g/ha): 90% | Post-emergence effect against POLCO in % (POLCO; 80 g/ha): 90% | Post-emergence effect against POLCO in % (POLCO; 320 g/ha): 90% | Post-emergence effect at 20 g/ha against TRZAS in % (TRZAS): 0%

COC(=O)C(OC)Oc1nn(-c2ncccc2F)c(-c2ccc(F)nc2)c1Cl (stereo not shown) [Example I-38]
pest or weed control at 320 g/ha (ABUTH; 320 g/ha): 80% | pest or weed control at 80 g/ha (VIOTR; Viola tricolor, 504 h, 80 g/ha, read-out: Post-emergence effect against VIOTR in %): 80% | pest or weed control at 320 g/ha (VIOTR; [1]): 90% | plant injury at 20 g/ha (ZEAMX): 0% | pest or weed control at 80 g/ha (AMARE; Amaranthus retroflexus, 504 h, 80 g/ha, read-out: Post-emergence effect against AMARE): 90% | pest or weed control at 320 g/ha (AMARE; [2]): 90% | pest or weed control at 320 g/ha (AVEFA; Avena fatua, 504 h, 320 g/ha, read-out: Post-emergence effect against AVEFA): 90% | pest or weed control at 320 g/ha (ALOMY): 100% | pest or weed control at 320 g/ha (LOLRI; 320 g/ha): 100% | pest or weed control at 320 g/ha (ECHCG; 320 g/ha): 100% | pest or weed control at 320 g/ha (SETVI; 320 g/ha): 90% | pest or weed control at 320 g/ha (DIGSA): 90% | pest or weed control at 80 g/ha (PHBPU; Ipomoea purpurea, 504 h, 80 g/ha, read-out: Post-emergence effect against PHBPU in %): 90% | pest or weed control at 320 g/ha (PHBPU; [3]): 90% | pest or weed control at 20 g/ha (VERPE; Veronica persica, 504 h, 20 g/ha, read-out: Post-emergence effect against VERPE in %): 80% | pest or weed control at 80 g/ha (VERPE; Veronica persica, 504 h, 80 g/ha, read-out: Post-emergence effect against VERPE in %): 80% | pest or weed control at 320 g/ha (VERPE; [4]): 100% | pest or weed control at 80 g/ha (POLCO; Fallopia convolvulus, 504 h, 80 g/ha, read-out: Post-emergence effect against POLCO in %): 90% | pest or weed control at 320 g/ha (POLCO; [5]): 90% | percent crop injury (phytotoxicity) to wheat, post-emergence at 20 g/ha (TRZAS): 0%

COC(Oc1nn(-c2cnccn2)c(-c2ccc(F)nc2)c1Cl)C(=O)O (stereo not shown) [Example I-42, {[4-Chloro-5-(6-fluoropyridin-3-yl)-1-(pyrazin-2-yl)-1H-pyrazol-3-yl]oxy}(methoxy)acetic acid]
pest or weed control at 320 g/ha (ABUTH; 320 g/ha): 80% | pest or weed control at 320 g/ha (VIOTR; [1]): 90% | plant injury at 20 g/ha (ZEAMX): 0% | plant injury at 80 g/ha (ZEAMX; 80 g/ha, read-out: Post-emergence effect at 80 g/ha against ZEAMX in %): 0% | plant injury at 320 g/ha (ZEAMX; 320 g/ha, read-out: Post-emergence effect at 320 g/ha against ZEAMX in %): 20% | pest or weed control at 320 g/ha (AMARE; [2]): 80% | pest or weed control at 320 g/ha (ALOMY): 90% | pest or weed control at 320 g/ha (LOLRI; 320 g/ha): 90% | pest or weed control at 320 g/ha (ECHCG; 320 g/ha): 90% | pest or weed control at 320 g/ha (SETVI; 320 g/ha): 80% | pest or weed control at 320 g/ha (KCHSC): 90% | pest or weed control at 320 g/ha (DIGSA): 90% | pest or weed control at 320 g/ha (PHBPU; [3]): 80% | pest or weed control at 320 g/ha (VERPE; [4]): 80% | pest or weed control at 320 g/ha (POLCO; [5]): 80% | percent crop injury (phytotoxicity) to wheat, post-emergence at 20 g/ha (TRZAS): 0%
